From ChEMBL document CHEMBL1148667, “1,2,4-Oxadiazolidin-3,5-diones and 1,3,5-triazin-2,4,6-triones as cytosolic phospholipase A2alpha inhibitors” (Bioorg Med Chem Lett, 2006)
Active and inactive are the calls of the source. The calls are words filed in the database; no cut-off is given here.

Columns and labels:
[1] = target: T1, Cytosolic phospholipase A2 (Homo sapiens, UniProt P47712); assay: Inhibition of cPLA2-alpha by GLU micelle assay
T1 sequence (P47712 whole entry): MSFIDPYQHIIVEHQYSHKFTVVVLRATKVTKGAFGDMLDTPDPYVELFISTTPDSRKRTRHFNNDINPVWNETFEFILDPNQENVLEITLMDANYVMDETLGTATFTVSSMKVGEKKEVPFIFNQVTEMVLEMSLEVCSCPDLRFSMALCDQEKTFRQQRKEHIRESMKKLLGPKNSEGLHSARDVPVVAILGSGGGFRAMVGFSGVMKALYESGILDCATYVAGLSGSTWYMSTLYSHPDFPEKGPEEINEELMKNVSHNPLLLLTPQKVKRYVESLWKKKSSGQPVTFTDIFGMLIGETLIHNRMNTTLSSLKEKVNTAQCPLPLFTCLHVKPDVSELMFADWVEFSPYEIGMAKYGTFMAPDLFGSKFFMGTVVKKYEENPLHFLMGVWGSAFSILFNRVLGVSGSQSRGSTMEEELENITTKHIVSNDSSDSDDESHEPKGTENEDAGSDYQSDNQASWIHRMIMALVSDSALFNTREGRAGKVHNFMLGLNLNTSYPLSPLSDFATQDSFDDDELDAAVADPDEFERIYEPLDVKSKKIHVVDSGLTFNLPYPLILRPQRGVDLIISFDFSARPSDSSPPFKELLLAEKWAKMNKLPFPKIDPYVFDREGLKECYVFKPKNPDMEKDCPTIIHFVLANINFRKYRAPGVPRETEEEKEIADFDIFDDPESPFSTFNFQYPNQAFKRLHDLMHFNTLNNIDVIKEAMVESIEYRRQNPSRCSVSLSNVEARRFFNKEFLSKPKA

[2] = Inhibition of LTB4 production in MC9 cell line; type: functional, cell-based; details: Mus musculus
[3] = Inhibition of PGF2-alpha production in MC9 cell line; type: functional, cell-based; details: Mus musculus
[4] = test system: MC9; assay: Inhibition of PGF2-alpha production in MC9 cell line in presence of arachidonic acid; type: functional, cell-based; details: Mus musculus
[5] = Inhibition of ionophore-stimulated TXB2 production in rat whole blood; type: functional, tissue-based

Row | SMILES | IC50 [1] [µM] | other results
1 | O=C(O)c1ccc(OCCn2c(=O)on(CC(c3ccccc3)c3ccccc3)c2=O)cc1O | 27 | –
2 | O=C(O)c1cccc(OCCn2c(=O)on(CC(c3ccccc3)c3ccccc3)c2=O)c1 | > 50 | –
3 | CCCCn1c(=O)n(CCOc2ccc(C(=O)O)cc2)c(=O)n(C(c2ccccc2)c2ccccc2)c1=O | 5.6 | –
4 | O=C(O)c1ccc(OCCCCn2c(=O)on(CC(c3ccccc3)c3ccccc3)c2=O)cc1 | > 50 | –
5 | O=C(O)c1ccc(OC/C=C/Cn2c(=O)on(CC(c3ccccc3)c3ccccc3)c2=O)cc1 | > 50 | –
6 | O=C(O)c1ccc(OCCCn2c(=O)on(CC(c3ccccc3)c3ccccc3)c2=O)cc1 | 12.4 | –
7 | O=C(O)c1ccc(OCCn2c(=O)on(CC(c3ccccc3)c3ccccc3)c2=O)cc1 | 6.7 | –
8 | CCn1c(=O)n(CCOc2ccc(C(=O)O)cc2)c(=O)n(C(c2ccccc2)c2ccccc2)c1=O | 7.5 | –
9 | O=C(O)c1ccc(OCC#CCn2c(=O)on(CC(c3ccccc3)c3ccccc3)c2=O)cc1 | 23 | –
10 | CCCCn1c(=O)n(C/C=C/COc2ccc(C(=O)O)cc2)c(=O)n(C(c2ccccc2)c2ccccc2)c1=O | 2.4 | –
11 | O=C(O)c1ccc(OC/C=C/Cn2c(=O)n(Cc3ccccc3)c(=O)n(C(c3ccccc3)c3ccccc3)c2=O)cc1 | 1.3 | IC50 [2]: 0.5 µM; IC50 [3]: 0.8 µM; Activity [4]: inactive; IC50 [5]: 5.2 µM
12 | O=C(O)c1ccc(OCCn2c(=O)n(Cc3ccccc3)c(=O)n(CC(c3ccccc3)c3ccccc3)c2=O)cc1 | 30 | –
13 | CCn1c(=O)n(C/C=C/COc2ccc(C(=O)O)cc2)c(=O)n(C(c2ccccc2)c2ccccc2)c1=O | 1.6 | –
14 | C=CCn1c(=O)n(C/C=C/COc2ccc(C(=O)O)cc2)c(=O)n(C(c2ccccc2)c2ccccc2)c1=O | 1.3 | –
15 | O=C(O)c1ccc(OCCn2c(=O)n(-c3ccccc3)c(=O)n(C(c3ccccc3)c3ccccc3)c2=O)cc1 | > 50 | –
16 | O=C(O)c1ccc(OCCn2c(=O)on(C(Cc3ccccc3)Cc3ccccc3)c2=O)cc1 | > 50 | –
17 | O=C(O)c1ccc(OCCn2c(=O)on(C(c3ccccc3)c3ccccc3)c2=O)cc1 | > 50 | –
18 | C=CCn1c(=O)n(CCOc2ccc(C(=O)O)cc2)c(=O)n(C(c2ccccc2)c2ccccc2)c1=O | 5 | –
19 | O=C(O)c1ccc(OCCn2c(=O)n(Cc3ccccc3)c(=O)n(C(c3ccccc3)c3ccccc3)c2=O)cc1 | 3.5 | –
